Results reported in PMC9732152 (The Laryngoscope, 2022).
Entries after “also recorded” stand apart in the source; their conditions may differ. Where a name gives a salt, the structure may show the parent alone. Square brackets hold non-standard residues; d marks the D form. Peptide text beside a SMILES is read from it. * marks the point of attachment. Sta = CC(C)C[C@H](N)[C@@H](O)CC(=O)O; Isovaleryl = CC(C)CC(=O)*

Tests used:
[1] = cited from earlier work
[2] = target: porcine pepsin A (Sus scrofa, UniProt P00791); assay type: binding; settings: 100nM pepstatin-Alexa647 probe, 0.03U/ul porcine pepsin A, 37.5% DMSO, 0.1 M HCl pH 1
[3] = target: porcine pepsin (Sus scrofa, UniProt P00791); assay: Fluorescence polarization peptic activity assay with casein-Alexa647 substrate; assay type: biochemical; settings: for inhibition of pepsin (IC50): 200nM casein-Alexa647 probe, 0.01U/μL pepsin, 5% DMSO, 0.1 M HCl pH 1
[4] = system: pepsin-mediated laryngeal damage; assay: Laryngopharyngeal reflux mouse model; assay type: in vivo, female Jackson A/J mice
[5] = system: pepsin; settings: cited from earlier work
[6] = aerosol with saline (solvent) instillation
[7] = gavage with saline (solvent) instillation

Sequence of porcine pepsin A (P00791 60-385): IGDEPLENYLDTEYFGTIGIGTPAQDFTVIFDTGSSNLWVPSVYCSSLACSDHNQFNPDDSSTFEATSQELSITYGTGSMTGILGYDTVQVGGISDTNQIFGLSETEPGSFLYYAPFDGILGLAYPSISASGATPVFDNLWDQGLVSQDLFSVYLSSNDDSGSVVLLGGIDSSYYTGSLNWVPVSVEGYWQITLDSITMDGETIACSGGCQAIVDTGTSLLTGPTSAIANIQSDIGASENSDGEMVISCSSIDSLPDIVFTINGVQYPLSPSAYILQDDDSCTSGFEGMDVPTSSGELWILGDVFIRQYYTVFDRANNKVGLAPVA
Sequence of porcine pepsin (P00791 60-385): as above

| Compound | binding to pepsin [2] | known side effects and interactions [1] | inhibition of pepsin (IC50) [3] | laryngeal epithelial histology/reactivity elicited by the drug itself [4, 6] | laryngeal epithelial histology/reactivity elicited by the drug itself [4, 7] | affinity for pepsin [5] | IC50 for pepsin compared with the other inhibitors ([3]; comparison among the HIV protease inhibitors tested) | apoptosis in laryngeal epithelium ([4]; aerosol, inhaled mass 12mg/kg/day darunavir, pepsin-pH7 instillation) |
| --- | --- | --- | --- | --- | --- | --- | --- | --- |
| CC(C)CN(C[C@@H](O)[C@H](Cc1ccccc1)NC(=O)O[C@H]1CCOC1)S(=O)(=O)c1ccc(N)cc1 [amprenavir] | bound | minimal side effects (diarrhea, nausea and vomiting) | inhibited pepsin at low micromolar concentrations; also recorded: low micromolar range | – | – | – | – | – |
| CC(C)CN(C[C@@H](OP(=O)(O)O)[C@H](Cc1ccccc1)NC(=O)O[C@H]1CCOC1)S(=O)(=O)c1ccc(N)cc1 [fosamprenavir] | – | – | – | normal histology | normal histology | – | – | – |
| CC(C)CC(=O)N[C@H](C(=O)N[C@H](C(=O)N[C@@H](CC(C)C)[C@@H](O)CC(=O)N[C@@H](C)C(=O)N[C@@H](CC(C)C)[C@@H](O)CC(=O)O)C(C)C)C(C)C [pepstatin, pepstatin A] (Isovaleryl-VV[Sta]A[Sta]-OH) | – | – | – | – | – | sub-nanomolar | – | – |
| CC(C)CN(C[C@@H](O)[C@H](Cc1ccccc1)NC(=O)O[C@H]1CO[C@H]2OCC[C@H]21)S(=O)(=O)c1ccc(N)cc1 [darunavir, darunavir ethanolate] | bound | – | inhibited pepsin at low micromolar concentrations; also recorded: low micromolar range | absent | mild reactivity (rare intraepithelial lymphocytes) | – | lowest IC50 | no apoptosis was observed |

Continued, in another order:

| binding to pepsin [2] | Compound | known side effects and interactions [1] | inhibition of pepsin (IC50) [3] | laryngeal epithelial histology/reactivity elicited by the drug itself [4, 6] | laryngeal epithelial histology/reactivity elicited by the drug itself [4, 7] | affinity for pepsin [5] | IC50 for pepsin compared with the other inhibitors ([3]; comparison among the HIV protease inhibitors tested) | apoptosis in laryngeal epithelium ([4]; aerosol, inhaled mass 12mg/kg/day darunavir, pepsin-pH7 instillation) |
| --- | --- | --- | --- | --- | --- | --- | --- | --- |
| bound | CC(C)(C)NC(=O)[C@@H]1C[C@@H]2CCCC[C@@H]2CN1C[C@@H](O)[C@H](Cc1ccccc1)NC(=O)[C@H](CC(N)=O)NC(=O)c1ccc2ccccc2n1 [saquinavir, saquinavir mesylate] | QT prolongation, heart block, high blood lipids and liver problems | inhibited pepsin at low micromolar concentrations; also recorded: low micromolar range | – | – | – | – | – |
| bound | CC(C)c1nc(CN(C)C(=O)N[C@H](C(=O)N[C@@H](Cc2ccccc2)C[C@H](O)[C@H](Cc2ccccc2)NC(=O)OCc2cncs2)C(C)C)cs1 [ritonavir] | minimal side effects (diarrhea, nausea and vomiting) | – | – | – | – | – | – |
